Results reported in patent publication US20250221964A1, “Substituted Isoxazoles as Selective Nav1.7 Inhibitors for Pain Treatment and Method of Pain Treatment” (Board of Regents, The University of Texas System, priority 2021, published 2025).
pIC50: −log10 of the molar value. Where two headings read alike, the source gives them in different places.

Experiments:
hNav1.7 = hNav1.7 (Homo sapiens, UniProt Q15858); assay: Nav1.7 in vitro inhibition assay; assay type: cell-based; conditions: for subtype selectivity (Nav1.7 vs. Nav1.5): in words
hNav1.5 = hNav1.5 (Homo sapiens, UniProt Q14524); assay: Nav1.5 in vitro inhibition assay; assay type: cell-based; conditions: in vitro testing
[1] = test system: mouse automated formalin model; assay: mouse automated formalin test; assay type: in vivo; conditions: 135 mg/kg p.o.
Protocol: (§1) Compound 100 was administered using the mouse automated formalin model at a dosage of 135 mg/kg p.o. Dosage was selected based upon projection from mouse exposure at 5 mg/kg.

[2] = mouse exposure / pharmacokinetics in formalin study (plasma, brain); assay type: in vivo; conditions: for concentration at 0.25 hr: pre-tx time 0.25 hr, unbound
Protocol: as §1

[3] = ADME assays (solubility, CYP inhibition, in vitro metabolism); conditions: in words
[4] = test system: muscarinic receptors in the rat cerebral cortex; conditions: cited from earlier work
[5] = in vitro testing, read-out: potency against Nav1.7
[6] = 135 mg/kg p.o., 0.25 hr, versus FI IC50
[7] = 135 mg/kg p.o., 0.25 hr, versus SI IC50

Chain of hNav1.7 (Q15858 whole entry): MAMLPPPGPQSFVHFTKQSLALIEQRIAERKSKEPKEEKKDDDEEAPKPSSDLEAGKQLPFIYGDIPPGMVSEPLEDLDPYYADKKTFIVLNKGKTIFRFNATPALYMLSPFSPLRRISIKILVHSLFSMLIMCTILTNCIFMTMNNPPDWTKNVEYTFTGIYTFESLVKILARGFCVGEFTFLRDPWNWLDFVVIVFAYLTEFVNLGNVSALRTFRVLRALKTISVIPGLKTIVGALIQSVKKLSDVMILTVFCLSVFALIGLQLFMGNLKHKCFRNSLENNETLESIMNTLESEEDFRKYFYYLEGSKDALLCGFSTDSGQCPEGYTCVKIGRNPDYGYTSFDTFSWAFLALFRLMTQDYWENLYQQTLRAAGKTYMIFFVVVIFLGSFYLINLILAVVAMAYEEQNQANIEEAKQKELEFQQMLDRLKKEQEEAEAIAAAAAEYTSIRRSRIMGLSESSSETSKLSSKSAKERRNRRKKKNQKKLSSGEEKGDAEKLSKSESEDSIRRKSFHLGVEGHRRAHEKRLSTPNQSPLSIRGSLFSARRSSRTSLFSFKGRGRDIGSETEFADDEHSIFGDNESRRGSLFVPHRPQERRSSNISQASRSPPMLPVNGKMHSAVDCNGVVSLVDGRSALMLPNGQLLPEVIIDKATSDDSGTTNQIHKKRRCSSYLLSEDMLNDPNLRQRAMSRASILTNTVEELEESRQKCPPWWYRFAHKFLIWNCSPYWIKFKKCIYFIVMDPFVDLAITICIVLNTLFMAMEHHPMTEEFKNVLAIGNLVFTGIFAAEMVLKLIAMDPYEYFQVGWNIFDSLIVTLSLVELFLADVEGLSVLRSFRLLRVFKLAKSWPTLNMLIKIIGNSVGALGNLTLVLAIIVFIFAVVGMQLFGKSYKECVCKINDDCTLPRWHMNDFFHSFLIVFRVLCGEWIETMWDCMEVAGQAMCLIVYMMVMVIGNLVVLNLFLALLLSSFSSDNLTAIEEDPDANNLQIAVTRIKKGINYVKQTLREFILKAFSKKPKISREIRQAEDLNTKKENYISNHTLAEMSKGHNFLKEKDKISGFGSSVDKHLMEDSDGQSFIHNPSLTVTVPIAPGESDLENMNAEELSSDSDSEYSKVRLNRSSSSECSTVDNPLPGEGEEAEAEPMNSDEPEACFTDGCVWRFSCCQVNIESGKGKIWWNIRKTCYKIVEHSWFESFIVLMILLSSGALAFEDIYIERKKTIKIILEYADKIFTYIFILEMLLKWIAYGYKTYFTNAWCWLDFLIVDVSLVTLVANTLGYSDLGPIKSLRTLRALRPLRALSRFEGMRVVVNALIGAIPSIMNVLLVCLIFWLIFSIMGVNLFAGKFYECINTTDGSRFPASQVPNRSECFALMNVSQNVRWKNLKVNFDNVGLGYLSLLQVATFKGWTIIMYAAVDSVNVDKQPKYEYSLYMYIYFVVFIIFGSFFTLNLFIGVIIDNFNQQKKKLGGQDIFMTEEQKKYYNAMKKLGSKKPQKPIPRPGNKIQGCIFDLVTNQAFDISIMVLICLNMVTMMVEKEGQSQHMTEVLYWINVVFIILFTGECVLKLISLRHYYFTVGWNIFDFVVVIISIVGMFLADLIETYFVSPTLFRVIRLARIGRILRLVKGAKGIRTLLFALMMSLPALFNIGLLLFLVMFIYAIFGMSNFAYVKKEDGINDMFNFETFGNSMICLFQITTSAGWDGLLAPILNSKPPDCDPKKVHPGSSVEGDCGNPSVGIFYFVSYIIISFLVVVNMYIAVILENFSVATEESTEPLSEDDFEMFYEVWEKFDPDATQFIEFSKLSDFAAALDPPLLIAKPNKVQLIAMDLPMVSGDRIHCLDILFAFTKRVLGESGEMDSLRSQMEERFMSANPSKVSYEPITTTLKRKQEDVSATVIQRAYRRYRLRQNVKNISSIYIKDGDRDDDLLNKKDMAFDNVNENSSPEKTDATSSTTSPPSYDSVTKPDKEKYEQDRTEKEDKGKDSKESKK
Chain of hNav1.5 (Q14524 whole entry): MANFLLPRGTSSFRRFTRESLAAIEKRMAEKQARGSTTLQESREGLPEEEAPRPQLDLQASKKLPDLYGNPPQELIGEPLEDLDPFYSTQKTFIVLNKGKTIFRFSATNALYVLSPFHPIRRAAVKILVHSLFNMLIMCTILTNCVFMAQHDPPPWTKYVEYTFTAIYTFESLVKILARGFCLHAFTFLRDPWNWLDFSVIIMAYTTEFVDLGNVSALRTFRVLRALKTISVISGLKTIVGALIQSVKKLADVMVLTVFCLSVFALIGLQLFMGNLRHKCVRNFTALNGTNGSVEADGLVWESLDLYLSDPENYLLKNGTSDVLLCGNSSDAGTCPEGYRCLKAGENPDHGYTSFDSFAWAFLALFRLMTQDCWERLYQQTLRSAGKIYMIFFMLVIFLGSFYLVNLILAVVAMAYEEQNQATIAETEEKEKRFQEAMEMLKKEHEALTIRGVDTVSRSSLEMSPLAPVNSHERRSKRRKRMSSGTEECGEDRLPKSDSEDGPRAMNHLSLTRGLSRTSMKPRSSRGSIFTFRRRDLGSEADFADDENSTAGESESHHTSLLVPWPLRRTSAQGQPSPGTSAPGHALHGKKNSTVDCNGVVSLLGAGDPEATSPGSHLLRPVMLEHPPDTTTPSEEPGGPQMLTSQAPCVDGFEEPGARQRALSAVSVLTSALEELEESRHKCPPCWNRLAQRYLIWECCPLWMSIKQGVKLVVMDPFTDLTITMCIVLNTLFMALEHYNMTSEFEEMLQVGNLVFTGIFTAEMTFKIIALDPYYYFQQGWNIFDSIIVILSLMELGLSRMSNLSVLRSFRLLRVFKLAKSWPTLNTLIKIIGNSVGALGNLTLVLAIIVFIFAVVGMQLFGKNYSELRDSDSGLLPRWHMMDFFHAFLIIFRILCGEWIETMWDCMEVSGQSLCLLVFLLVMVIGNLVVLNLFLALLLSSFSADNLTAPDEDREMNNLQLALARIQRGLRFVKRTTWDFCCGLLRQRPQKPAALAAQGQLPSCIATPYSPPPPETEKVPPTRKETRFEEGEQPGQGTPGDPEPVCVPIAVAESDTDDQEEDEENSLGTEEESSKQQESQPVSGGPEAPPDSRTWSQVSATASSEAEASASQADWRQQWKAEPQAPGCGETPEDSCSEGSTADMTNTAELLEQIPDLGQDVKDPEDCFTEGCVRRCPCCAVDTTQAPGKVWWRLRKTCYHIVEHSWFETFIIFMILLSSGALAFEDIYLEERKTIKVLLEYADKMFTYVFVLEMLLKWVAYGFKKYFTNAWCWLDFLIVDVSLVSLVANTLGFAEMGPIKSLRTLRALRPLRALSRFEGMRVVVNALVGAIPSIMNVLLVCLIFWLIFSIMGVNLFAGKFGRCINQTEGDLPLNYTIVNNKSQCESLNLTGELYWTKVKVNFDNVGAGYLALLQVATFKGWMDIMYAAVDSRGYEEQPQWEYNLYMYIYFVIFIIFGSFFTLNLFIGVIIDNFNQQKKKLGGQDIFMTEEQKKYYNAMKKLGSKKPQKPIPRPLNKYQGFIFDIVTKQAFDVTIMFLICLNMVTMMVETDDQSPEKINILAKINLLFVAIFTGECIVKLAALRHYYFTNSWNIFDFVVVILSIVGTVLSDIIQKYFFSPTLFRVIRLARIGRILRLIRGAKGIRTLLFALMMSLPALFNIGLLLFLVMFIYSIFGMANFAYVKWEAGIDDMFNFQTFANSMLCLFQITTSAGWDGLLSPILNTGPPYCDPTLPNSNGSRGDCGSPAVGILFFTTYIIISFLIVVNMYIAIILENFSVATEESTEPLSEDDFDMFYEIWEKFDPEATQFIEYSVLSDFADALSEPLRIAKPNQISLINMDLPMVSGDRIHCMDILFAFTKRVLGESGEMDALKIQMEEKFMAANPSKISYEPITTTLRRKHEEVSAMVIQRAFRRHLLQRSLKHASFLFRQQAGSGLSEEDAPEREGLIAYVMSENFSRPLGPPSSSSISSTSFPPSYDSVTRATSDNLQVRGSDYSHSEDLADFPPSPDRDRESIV

CC(C)(CO)CCCNC(=O)c1noc(-c2ccccc2)c1-c1ccccc1 [Compound 106]
pIC50 (hNav1.7; [5]): 7.22 | subtype selectivity (Nav1.7 vs. Nav1.5) (hNav1.7): remained poor | pIC50 (hNav1.5; read-out: Nav1.5 IC50): 6.74

CN(CCCC(C)(C)CO)C(=O)c1cc(-c2ccccc2)on1 [Compound 119]
subtype selectivity (Nav1.7 vs. Nav1.5) (hNav1.7): improved

CC(C)(CO)CCCNC(=O)c1cc(-c2ccccc2)on1 [Compound 100]
pIC50 (hNav1.7; FI, read-out: h1.7 IC50 (FI)): 5.69 | pIC50 (hNav1.7; [5]): 6.24 | subtype selectivity (Nav1.7 vs. Nav1.5) (hNav1.7): poor selectivity | pIC50 (hNav1.5; read-out: Nav1.5 potency): 5.72 | reduction in late-phase pain-induced reactions [1]: 31.4% | Percent Reversal in Late Phase Formalin ([1]; pre-tx time 0.25 hr): 31.4 ± 5.1% | Brain TER (FI) [2, 6]: 0.2 (FI) | Plasma TER (FI) [2, 6]: 0.1 (FI) | Brain TER (SI) [2, 7]: 1.8 (SI) | Plasma TER (SI) [2, 7]: 1.2 (SI) | concentration at 0.25 hr ([2]; brain, po, mouse, 135 mg/kg p.o., read-out: Mean Brain, u): 414 nM | Tmax ([2]; in vivo, po, mouse): 15 min | half-life ([2]; in vivo, po, mouse): 66 min | concentration at 0.25 hr ([2]; plasma, po, mouse, 135 mg/kg p.o., read-out: Mean plasma, u): 282 nM | compound profiling in ADME assays [3]: promising

Cc1scc2c1N(C(=O)CN1CCN(C)CC1)c1ccccc1NC2=O [(−)-isomer, telenzepine]
fold less active than the (+)-isomer [4]: 500 ×

Cc1ccc(F)cc1-c1c(C(=O)NCCCC(C)(C)CO)noc1-c1ccccc1 [Compound 130]
subtype selectivity (Nav1.7 vs. Nav1.5) (hNav1.7): improved
